pEC50, pIC50: −log10 of the molar value. The source made the active and inactive calls. The rule behind the calls is not given here.
System: PC-12
Experiment: Increase of synaptic activity in rat PC12 cells after 5 days by fluorescence assay
Type: functional, cell-based
Details: PC-12, 120 h

| SMILES | pEC50 |
| --- | --- |
| CCc1nc2cc(/C=C/C(=O)NO)ccc2c(=O)n1CCc1ccc(F)cc1 | 4.86 |
| CCc1nc2cc(/C=C/C(=O)NO)ccc2c(=O)n1CCc1ccc(OC)cc1 | 4.69 |
| CC(C)c1nc2cc(/C=C/C(=O)NO)ccc2c(=O)n1CCc1ccccc1 | 5.28 |
| CCc1nc2cc(/C=C/C(=O)NO)ccc2c(=O)n1CCCc1ccccc1 | 5.15 |

System: SH-SY5Y
Experiment: Induction of neurite outgrowth in human SH-SY5Y cells at 10 uM after 5 days
Type: functional, cell-based
Details: not given

| SMILES | Activity |
| --- | --- |
| CCc1nc2cc(/C=C/C(=O)NO)ccc2c(=O)n1CCc1ccc(F)cc1 | Active |
| O=C(/C=C/c1ccc2c(=O)n(CCc3ccccc3)c(C3CC3)nc2c1)NO | Active |
| CC(C)c1nc2cc(/C=C/C(=O)NO)ccc2c(=O)n1CCc1ccccc1 | Active |
| CCc1nc2cc(/C=C/C(=O)NO)ccc2c(=O)n1CCCc1ccccc1 | Active |

System: PC-12
Experiment: Induction of neurite outgrowth in rat PC12 cells after 5 days
Type: functional, cell-based
Details: PC-12, 120 h

| SMILES | pEC50 |
| --- | --- |
| CCc1nc2cc(/C=C/C(=O)NO)ccc2c(=O)n1CCc1ccc(F)cc1 | 4.74 |
| CCc1nc2cc(/C=C/C(=O)NO)ccc2c(=O)n1CCc1ccc(OC)cc1 | 5.14 |
| O=C(/C=C/c1ccc2c(=O)n(CCc3ccccc3)c(C3CC3)nc2c1)NO | 4.98 |
| CC(C)c1nc2cc(/C=C/C(=O)NO)ccc2c(=O)n1CCc1ccccc1 | 4.94 |
| CCc1nc2cc(/C=C/C(=O)NO)ccc2c(=O)n1CCCc1ccccc1 | 5.18 |

System: PC-12
Experiment: Induction iof GAP-43 protein expression in rat PC12 cells after 48 hrs by Western blotting analysis
Type: functional, cell-based
Details: not given

| SMILES | Activity |
| --- | --- |
| CCc1nc2cc(/C=C/C(=O)NO)ccc2c(=O)n1CCCc1ccccc1 | Dose-dependent effect |

Molecular target: T1, Protein deacetylase HDAC6 (Homo sapiens, UniProt Q9UBN7)
T1 sequence (Q9UBN7 whole entry): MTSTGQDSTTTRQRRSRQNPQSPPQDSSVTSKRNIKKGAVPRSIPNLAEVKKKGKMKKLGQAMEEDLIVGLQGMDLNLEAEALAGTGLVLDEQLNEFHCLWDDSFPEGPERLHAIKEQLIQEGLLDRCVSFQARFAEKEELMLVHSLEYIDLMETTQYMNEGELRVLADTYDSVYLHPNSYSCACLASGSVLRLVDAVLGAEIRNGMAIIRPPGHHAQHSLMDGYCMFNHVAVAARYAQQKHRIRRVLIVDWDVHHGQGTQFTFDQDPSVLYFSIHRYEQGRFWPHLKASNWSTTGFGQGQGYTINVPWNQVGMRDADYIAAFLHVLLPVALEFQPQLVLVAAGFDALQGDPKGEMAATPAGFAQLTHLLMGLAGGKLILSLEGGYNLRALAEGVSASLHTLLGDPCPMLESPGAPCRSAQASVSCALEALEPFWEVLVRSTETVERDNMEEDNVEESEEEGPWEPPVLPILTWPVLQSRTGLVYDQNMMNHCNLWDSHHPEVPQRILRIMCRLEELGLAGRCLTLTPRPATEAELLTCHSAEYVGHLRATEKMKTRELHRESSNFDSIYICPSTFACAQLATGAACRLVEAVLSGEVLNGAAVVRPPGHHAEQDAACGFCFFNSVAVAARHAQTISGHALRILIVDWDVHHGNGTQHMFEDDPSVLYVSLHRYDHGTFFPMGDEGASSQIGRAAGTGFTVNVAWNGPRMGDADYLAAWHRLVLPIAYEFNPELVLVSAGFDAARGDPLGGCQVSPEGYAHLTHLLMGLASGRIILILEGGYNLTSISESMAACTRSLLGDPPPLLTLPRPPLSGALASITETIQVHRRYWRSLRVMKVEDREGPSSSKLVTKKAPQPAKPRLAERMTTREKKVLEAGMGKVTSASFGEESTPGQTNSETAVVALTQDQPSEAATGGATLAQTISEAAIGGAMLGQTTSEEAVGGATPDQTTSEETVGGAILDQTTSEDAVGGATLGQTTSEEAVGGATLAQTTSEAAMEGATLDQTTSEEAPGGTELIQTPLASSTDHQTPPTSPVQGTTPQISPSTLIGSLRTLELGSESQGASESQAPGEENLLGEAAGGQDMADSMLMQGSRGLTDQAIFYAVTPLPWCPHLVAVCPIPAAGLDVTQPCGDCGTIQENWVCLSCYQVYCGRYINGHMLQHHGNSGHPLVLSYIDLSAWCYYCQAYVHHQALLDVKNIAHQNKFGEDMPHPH
Experiment: Inhibition of human recombinant HDAC6 expressed in baculovirus/sf9 cells using RHKKAc as substrate
Details: not given

| SMILES | pIC50 |
| --- | --- |
| CCc1nc2cc(/C=C/C(=O)NO)ccc2c(=O)n1CCc1ccc(F)cc1 | 7.37 |
| CCc1nc2cc(/C=C/C(=O)NO)ccc2c(=O)n1CCc1ccc(OC)cc1 | 7.39 |
| O=C(/C=C/c1ccc2c(=O)n(CCc3ccccc3)c(C3CC3)nc2c1)NO | 7.39 |
| CC(C)c1nc2cc(/C=C/C(=O)NO)ccc2c(=O)n1CCc1ccccc1 | 7.89 |
| CCc1nc2cc(/C=C/C(=O)NO)ccc2c(=O)n1CCCc1ccccc1 | 7.48 |

System: SH-SY5Y
Experiment: Induction of neurite outgrowth in human SH-SY5Y cells after 5 days
Type: functional, cell-based
Details: 120 h

| SMILES | pEC50 |
| --- | --- |
| CCc1nc2cc(/C=C/C(=O)NO)ccc2c(=O)n1CCc1ccc(F)cc1 | < 4.60 |
| CCc1nc2cc(/C=C/C(=O)NO)ccc2c(=O)n1CCc1ccc(OC)cc1 | < 4.60 |
| O=C(/C=C/c1ccc2c(=O)n(CCc3ccccc3)c(C3CC3)nc2c1)NO | < 4.60 |
| CC(C)c1nc2cc(/C=C/C(=O)NO)ccc2c(=O)n1CCc1ccccc1 | 4.82 |
| CCc1nc2cc(/C=C/C(=O)NO)ccc2c(=O)n1CCCc1ccccc1 | 4.93 |

System: PC-12
Experiment: Induction of neurite outgrowth in rat PC12 cells at 10 uM after 5 days
Type: functional, cell-based
Details: not given

| SMILES | Activity |
| --- | --- |
| CCc1nc2cc(/C=C/C(=O)NO)ccc2c(=O)n1CCc1ccc(F)cc1 | Active |
| O=C(/C=C/c1ccc2c(=O)n(CCc3ccccc3)c(C3CC3)nc2c1)NO | Active |
| CC(C)c1nc2cc(/C=C/C(=O)NO)ccc2c(=O)n1CCc1ccccc1 | Active |
| CCc1nc2cc(/C=C/C(=O)NO)ccc2c(=O)n1CCCc1ccccc1 | Active |

System: SH-SY5Y
Experiment: Increase of synaptic activity in human SH-SY5Y cells after 5 days by fluorescence assay
Type: functional, cell-based
Details: 120 h

| SMILES | pEC50 |
| --- | --- |
| CCc1nc2cc(/C=C/C(=O)NO)ccc2c(=O)n1CCc1ccc(F)cc1 | 4.65 |
| CCc1nc2cc(/C=C/C(=O)NO)ccc2c(=O)n1CCc1ccc(OC)cc1 | 4.69 |
| O=C(/C=C/c1ccc2c(=O)n(CCc3ccccc3)c(C3CC3)nc2c1)NO | < 4.60 |
| CC(C)c1nc2cc(/C=C/C(=O)NO)ccc2c(=O)n1CCc1ccccc1 | 5.17 |
| CCc1nc2cc(/C=C/C(=O)NO)ccc2c(=O)n1CCCc1ccccc1 | 5.00 |

Molecular target: T2, Histone deacetylase 8 (Homo sapiens, UniProt Q9BY41)
T2 sequence (Q9BY41 whole entry): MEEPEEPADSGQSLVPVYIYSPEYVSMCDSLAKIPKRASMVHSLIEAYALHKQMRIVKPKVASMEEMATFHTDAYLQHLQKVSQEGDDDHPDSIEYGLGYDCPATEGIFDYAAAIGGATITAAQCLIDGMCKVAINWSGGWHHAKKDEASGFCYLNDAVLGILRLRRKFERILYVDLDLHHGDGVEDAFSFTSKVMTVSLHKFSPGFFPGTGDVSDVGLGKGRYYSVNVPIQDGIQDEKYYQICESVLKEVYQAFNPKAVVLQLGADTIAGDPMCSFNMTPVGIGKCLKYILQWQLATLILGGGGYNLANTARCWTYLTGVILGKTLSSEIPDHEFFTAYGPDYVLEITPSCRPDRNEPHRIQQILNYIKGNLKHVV
Experiment: Inhibition of human recombinant HDAC8 expressed in baculovirus/sf9 cells using RHKAcKAc as substrate
Details: not given

| SMILES | pIC50 |
| --- | --- |
| CCc1nc2cc(/C=C/C(=O)NO)ccc2c(=O)n1CCc1ccc(F)cc1 | 6.05 |
| CCc1nc2cc(/C=C/C(=O)NO)ccc2c(=O)n1CCc1ccc(OC)cc1 | 6.23 |
| CCc1nc2cc(/C=C/C(=O)NO)ccc2c(=O)n1CCCc1ccccc1 | 5.88 |

Molecular target: Histone deacetylase 1 (Homo sapiens, UniProt Q13547)
Sequence (Q13547 whole entry): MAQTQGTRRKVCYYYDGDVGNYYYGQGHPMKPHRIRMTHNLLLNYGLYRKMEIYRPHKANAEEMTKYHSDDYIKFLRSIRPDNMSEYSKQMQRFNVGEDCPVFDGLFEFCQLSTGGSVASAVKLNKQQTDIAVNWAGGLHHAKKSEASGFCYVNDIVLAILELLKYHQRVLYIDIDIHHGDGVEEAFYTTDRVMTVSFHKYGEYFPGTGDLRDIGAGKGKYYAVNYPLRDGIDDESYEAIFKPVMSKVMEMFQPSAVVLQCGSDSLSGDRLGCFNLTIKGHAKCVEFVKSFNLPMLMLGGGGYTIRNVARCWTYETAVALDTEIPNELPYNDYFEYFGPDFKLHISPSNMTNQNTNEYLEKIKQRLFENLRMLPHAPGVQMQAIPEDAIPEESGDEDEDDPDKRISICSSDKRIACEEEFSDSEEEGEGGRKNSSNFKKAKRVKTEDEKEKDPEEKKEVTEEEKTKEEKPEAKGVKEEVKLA
Experiment: Inhibition of human recombinant HDAC1 expressed in baculovirus/sf9 cells using RHKKAc as substrate
Details: not given

| SMILES | pIC50 |
| --- | --- |
| CCc1nc2cc(/C=C/C(=O)NO)ccc2c(=O)n1CCc1ccc(F)cc1 | 5.68 |
| CCc1nc2cc(/C=C/C(=O)NO)ccc2c(=O)n1CCc1ccc(OC)cc1 | 5.74 |
| O=C(/C=C/c1ccc2c(=O)n(CCc3ccccc3)c(C3CC3)nc2c1)NO | 6.36 |
| CC(C)c1nc2cc(/C=C/C(=O)NO)ccc2c(=O)n1CCc1ccccc1 | 6.41 |
| CCc1nc2cc(/C=C/C(=O)NO)ccc2c(=O)n1CCCc1ccccc1 | 5.49 |

Molecular target: Histone deacetylase 2 (Homo sapiens, UniProt Q92769)
Sequence (Q92769 whole entry): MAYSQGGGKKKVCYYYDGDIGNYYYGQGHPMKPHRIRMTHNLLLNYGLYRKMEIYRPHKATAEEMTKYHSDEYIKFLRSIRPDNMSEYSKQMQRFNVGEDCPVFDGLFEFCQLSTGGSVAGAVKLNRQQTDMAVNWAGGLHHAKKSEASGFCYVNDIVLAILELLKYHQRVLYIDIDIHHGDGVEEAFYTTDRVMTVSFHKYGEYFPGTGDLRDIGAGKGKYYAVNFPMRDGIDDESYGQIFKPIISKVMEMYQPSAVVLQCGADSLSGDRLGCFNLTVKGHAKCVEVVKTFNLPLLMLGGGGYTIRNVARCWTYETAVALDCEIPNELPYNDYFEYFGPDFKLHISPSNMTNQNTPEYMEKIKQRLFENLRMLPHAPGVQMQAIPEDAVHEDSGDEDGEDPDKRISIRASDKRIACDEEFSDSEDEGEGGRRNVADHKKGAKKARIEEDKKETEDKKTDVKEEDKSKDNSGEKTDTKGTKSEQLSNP
Experiment: Inhibition of human recombinant HDAC2 expressed in baculovirus/sf9 cells using RHKKAc as substrate
Details: not given

| SMILES | pIC50 |
| --- | --- |
| CCc1nc2cc(/C=C/C(=O)NO)ccc2c(=O)n1CCc1ccc(F)cc1 | 5.16 |
| CCc1nc2cc(/C=C/C(=O)NO)ccc2c(=O)n1CCc1ccc(OC)cc1 | 5.32 |
| CCc1nc2cc(/C=C/C(=O)NO)ccc2c(=O)n1CCCc1ccccc1 | < 4.92 |

System: Vero
Experiment: Cytotoxicity against african green monkey Vero cells at 25 uM
Type: cell-based
Details: chlorocebus sabaeus

| SMILES | Activity |
| --- | --- |
| CCc1nc2cc(/C=C/C(=O)NO)ccc2c(=O)n1CCc1ccc(F)cc1 | Non-toxic |
| CCc1nc2cc(/C=C/C(=O)NO)ccc2c(=O)n1CCc1ccc(OC)cc1 | Non-toxic |
| O=C(/C=C/c1ccc2c(=O)n(CCc3ccccc3)c(C3CC3)nc2c1)NO | Non-toxic |
| CC(C)c1nc2cc(/C=C/C(=O)NO)ccc2c(=O)n1CCc1ccccc1 | Non-toxic |
| CCc1nc2cc(/C=C/C(=O)NO)ccc2c(=O)n1CCCc1ccccc1 | Non-toxic |

System: PC-12
Experiment: Cytotoxicity against rat PC12 cells at 25 uM
Type: cell-based
Details: pc-12, 25 µM

| SMILES | Activity |
| --- | --- |
| CCc1nc2cc(/C=C/C(=O)NO)ccc2c(=O)n1CCc1ccc(F)cc1 | Non-toxic |
| CCc1nc2cc(/C=C/C(=O)NO)ccc2c(=O)n1CCc1ccc(OC)cc1 | Non-toxic |
| O=C(/C=C/c1ccc2c(=O)n(CCc3ccccc3)c(C3CC3)nc2c1)NO | Non-toxic |
| CC(C)c1nc2cc(/C=C/C(=O)NO)ccc2c(=O)n1CCc1ccccc1 | Non-toxic |
| CCc1nc2cc(/C=C/C(=O)NO)ccc2c(=O)n1CCCc1ccccc1 | Non-toxic |

Molecular target: Poly [ADP-ribose] polymerase 1 (Homo sapiens) (UniProt P09874)
Sequence (P09874 whole entry): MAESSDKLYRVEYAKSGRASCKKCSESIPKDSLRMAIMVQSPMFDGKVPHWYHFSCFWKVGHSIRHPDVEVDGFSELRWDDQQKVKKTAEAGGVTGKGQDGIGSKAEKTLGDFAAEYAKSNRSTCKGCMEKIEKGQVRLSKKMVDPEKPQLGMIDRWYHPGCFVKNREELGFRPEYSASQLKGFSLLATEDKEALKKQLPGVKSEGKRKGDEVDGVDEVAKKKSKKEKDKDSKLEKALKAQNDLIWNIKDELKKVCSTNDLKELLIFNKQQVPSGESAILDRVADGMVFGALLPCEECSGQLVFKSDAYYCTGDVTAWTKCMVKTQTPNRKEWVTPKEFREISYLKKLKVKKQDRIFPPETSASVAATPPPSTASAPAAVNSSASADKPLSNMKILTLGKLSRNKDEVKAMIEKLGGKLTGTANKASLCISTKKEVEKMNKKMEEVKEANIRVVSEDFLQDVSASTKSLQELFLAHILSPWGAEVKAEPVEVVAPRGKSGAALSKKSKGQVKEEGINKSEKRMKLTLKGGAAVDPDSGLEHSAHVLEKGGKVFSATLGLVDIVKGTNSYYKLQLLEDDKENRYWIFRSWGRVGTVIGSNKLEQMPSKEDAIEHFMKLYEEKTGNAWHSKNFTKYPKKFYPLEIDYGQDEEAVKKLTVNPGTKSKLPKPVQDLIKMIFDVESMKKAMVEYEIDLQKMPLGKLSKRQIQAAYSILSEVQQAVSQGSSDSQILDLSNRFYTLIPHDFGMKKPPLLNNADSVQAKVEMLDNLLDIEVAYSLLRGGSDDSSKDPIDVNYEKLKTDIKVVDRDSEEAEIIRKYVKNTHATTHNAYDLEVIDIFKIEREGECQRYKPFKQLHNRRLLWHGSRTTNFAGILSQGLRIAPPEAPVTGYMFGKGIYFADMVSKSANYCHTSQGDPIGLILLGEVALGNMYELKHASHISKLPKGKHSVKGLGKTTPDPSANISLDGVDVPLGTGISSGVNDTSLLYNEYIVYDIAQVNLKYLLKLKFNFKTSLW
Experiment: Inhibition of PARP1 (unknown origin) up to 25 uM
Details: not given

| SMILES | inhibition |
| --- | --- |
| CCc1nc2cc(/C=C/C(=O)NO)ccc2c(=O)n1CCCc1ccccc1 | inactive |

System: not listed separately
Experiment: Cytotoxicity against human SH-SY5Y cells at 25 uM
Type: cell-based
Details: not given

| SMILES | Activity |
| --- | --- |
| CCc1nc2cc(/C=C/C(=O)NO)ccc2c(=O)n1CCc1ccc(F)cc1 | Non-toxic |
| CCc1nc2cc(/C=C/C(=O)NO)ccc2c(=O)n1CCc1ccc(OC)cc1 | Non-toxic |
| O=C(/C=C/c1ccc2c(=O)n(CCc3ccccc3)c(C3CC3)nc2c1)NO | Non-toxic |
| CC(C)c1nc2cc(/C=C/C(=O)NO)ccc2c(=O)n1CCc1ccccc1 | Non-toxic |
| CCc1nc2cc(/C=C/C(=O)NO)ccc2c(=O)n1CCCc1ccccc1 | Non-toxic |

Molecular target: T3, Histone deacetylase 11 (Homo sapiens, UniProt Q96DB2)
T3 sequence (Q96DB2 whole entry): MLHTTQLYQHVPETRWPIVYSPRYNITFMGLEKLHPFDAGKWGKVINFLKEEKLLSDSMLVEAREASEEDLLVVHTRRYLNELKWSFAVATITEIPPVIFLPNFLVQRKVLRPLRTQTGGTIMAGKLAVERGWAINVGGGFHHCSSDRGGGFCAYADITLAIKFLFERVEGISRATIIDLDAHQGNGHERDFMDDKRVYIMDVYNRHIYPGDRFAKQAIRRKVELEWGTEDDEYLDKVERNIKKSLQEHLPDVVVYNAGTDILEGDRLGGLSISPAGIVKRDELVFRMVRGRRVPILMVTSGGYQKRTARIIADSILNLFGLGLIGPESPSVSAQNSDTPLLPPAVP
Experiment: Inhibition of human recombinant HDAC11 expressed in baculovirus/sf9 cells using RHKKAc as substrate
Details: not given

| SMILES | pIC50 |
| --- | --- |
| CCc1nc2cc(/C=C/C(=O)NO)ccc2c(=O)n1CCc1ccc(F)cc1 | 5.37 |
| CCc1nc2cc(/C=C/C(=O)NO)ccc2c(=O)n1CCc1ccc(OC)cc1 | 5.41 |
| CCc1nc2cc(/C=C/C(=O)NO)ccc2c(=O)n1CCCc1ccccc1 | 5.25 |
